Measured values taken from article PMC11413853, “Discovery of VU6007496: Challenges in the Development of an M1 Positive Allosteric Modulator Backup Candidate” (ACS Chemical Neuroscience, 2024).
Like-named read-outs stand apart in the source and are kept apart here.

Assays:
rat M1 = target: T1, rat M1 (Rattus norvegicus, UniProt P08482); experiment: Calcium mobilization assay, rat M1 (agonist and PAM modes); type: cell-based; conditions: for rM1 PAM AChmax (%) / rM1 Agonist AChmax (%): % ACh max
T1 construct: expressed in transfected cells; host or cells: CHO (stated in general for all functional cell-based assays)
T1 sequence (P08482 1-460): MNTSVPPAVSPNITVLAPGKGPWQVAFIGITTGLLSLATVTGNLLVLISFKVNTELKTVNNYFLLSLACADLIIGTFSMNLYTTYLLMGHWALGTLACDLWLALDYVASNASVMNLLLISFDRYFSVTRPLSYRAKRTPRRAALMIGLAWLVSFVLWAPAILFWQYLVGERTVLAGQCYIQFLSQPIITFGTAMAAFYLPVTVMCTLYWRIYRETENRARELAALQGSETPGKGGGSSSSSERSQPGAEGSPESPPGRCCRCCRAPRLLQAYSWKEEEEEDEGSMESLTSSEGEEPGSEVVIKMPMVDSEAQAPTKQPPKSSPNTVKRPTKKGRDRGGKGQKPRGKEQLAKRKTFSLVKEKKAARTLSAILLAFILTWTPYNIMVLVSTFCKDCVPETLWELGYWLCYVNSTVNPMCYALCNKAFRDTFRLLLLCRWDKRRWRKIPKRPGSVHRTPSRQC

hM2-5 = experiment: Muscarinic selectivity, human M2-5; type: cell-based
Procedure: Procedures for Biological Experiments
Calcium mobilization assays:
All functional cell-based assays were performed in stable Chinese Hamster Ovary (CHO) cell lines constitutively expressing human M5 or human M1 receptors. For full muscarinic selectivity, CHO cells expressing human M3, human M2 plus Gqi5 or human M4 plus Gqi5 were used. Cells were plated at 15,000 cells per 20 µL per well in black 384-well, TC-treated, clear-bottomed plates (Greiner) in Ham’s F12 medium supplemented with 10% FBS and 20 mM HEPES. Cells were incubated overnight at 37 °C under 5% CO2. The following day, the medium was removed and replaced with 1.2 µM Fluo-4 AM (Invitrogen) in assay buffer (Hank’s Balanced Salt Solution supplemented with 20 mM HEPES and 2.5 mM Probenecid, pH 7.4) and the cells were incubated for 50 minutes at 37 °C under 5% CO2. Dye was then removed and replaced with 20 µL of fresh assay buffer. Test compounds at a 10 mM concentration in DMSO were serially diluted in DMSO (either 1:3 or 1:5 dilution) to create a 10-point concentration series. The DMSO solutions were then diluted in assay buffer resulting in compound solutions at 2-times the final assay concentration with the highest assay concentration of 30 µM. The compound plate, cell plate, and plates containing EC20 and EC80 acetylcholine concentrations were placed in a Hamamatsu FDSS 6000 or 7000 kinetic imaging plate reader equipped to measure Ex480/Em540 fluorescence. Data were collected at 1 frame per second. After 2 seconds of collecting baseline fluorescence, 20 µL of the compound solutions were added to the cell plate. This was followed by the addition of an EC20 concentration of acetylcholine at 142 seconds. […] The fluorescence signal was collected for a total of 300 seconds. […] Data were imported and analyzed in Dotmatics Informatics software. by normalizing all data in the individual kinetic traces to the initial fluorescence read. The magnitude of each agonist addition was then determined and normalized to the average maximum response. […] The IC50 determined using the EC80 of acetylcholine is the value reported. […]

rM2-5 = experiment: Muscarinic selectivity, rat M2-5; type: cell-based
CYP1A2 = target: T2, CYP1A2 (Homo sapiens, UniProt P05177); experiment: CYP inhibition, 1A2; type: in vitro ADME
T2 sequence (P05177 1-516): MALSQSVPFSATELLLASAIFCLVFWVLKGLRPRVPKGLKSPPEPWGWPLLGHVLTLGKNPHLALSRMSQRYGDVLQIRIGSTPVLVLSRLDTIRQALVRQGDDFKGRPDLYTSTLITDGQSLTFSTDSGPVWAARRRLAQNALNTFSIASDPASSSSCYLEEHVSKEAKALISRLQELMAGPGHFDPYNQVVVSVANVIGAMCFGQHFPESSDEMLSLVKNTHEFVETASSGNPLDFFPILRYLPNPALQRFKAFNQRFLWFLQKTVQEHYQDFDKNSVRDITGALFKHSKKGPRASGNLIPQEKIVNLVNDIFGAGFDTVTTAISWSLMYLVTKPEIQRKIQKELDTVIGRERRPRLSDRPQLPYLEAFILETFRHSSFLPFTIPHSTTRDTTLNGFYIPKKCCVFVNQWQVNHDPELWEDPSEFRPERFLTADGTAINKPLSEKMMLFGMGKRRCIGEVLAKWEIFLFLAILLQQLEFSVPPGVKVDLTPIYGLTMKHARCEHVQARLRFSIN

CYP2C9 = CYP2C9 (Homo sapiens, UniProt P11712); experiment: CYP inhibition, 2C9; type: in vitro ADME
CYP2D6 = CYP2D6 (Homo sapiens, UniProt P10635); experiment: CYP inhibition, 2D6; type: in vitro ADME
CYP3A4 = CYP3A4 (Homo sapiens, UniProt P08684); experiment: CYP inhibition, 3A4; type: in vitro ADME
P-gp = tested on: T3, P-gp; experiment: MDCK-MDR1 P-gp efflux and permeability; type: in vitro ADME; set-up: efflux ratio at 2 h / Papp at 2 h: dose or concentration left out as unconfirmed; conditions: for Papp at 2 h / efflux ratio at 2 h: dog; for Papp at 2 h: MDCK-MDR1; for efflux ratio at 2 h / P-gp ER: MDCK-MDR1 efflux ratio; for efflux ratio at 2 h: read-out: P-gp ER
T3 construct: host or cells: MDR1-MDCK cell monolayers
Procedure: In-vitro determination of blood-brain barrier penetration potential
Blood-brain barrier penetration was determined using MDR1-MDCK cell monolayers by Absorption Systems, following their protocol. In short, compounds were incubated […] final […]
concentration on one side of the cell monolayer for 2 hours. Compounds concentration on either side of the monolayer was determined by LC-MS/MS and apparent permeability and efflux ratio

[1] = PAM mode, read-out: rM1 PAM EC50
[2] = agonist mode, read-out: rM1 Agonist EC50

Sequence of CYP2C9 (P11712 whole entry): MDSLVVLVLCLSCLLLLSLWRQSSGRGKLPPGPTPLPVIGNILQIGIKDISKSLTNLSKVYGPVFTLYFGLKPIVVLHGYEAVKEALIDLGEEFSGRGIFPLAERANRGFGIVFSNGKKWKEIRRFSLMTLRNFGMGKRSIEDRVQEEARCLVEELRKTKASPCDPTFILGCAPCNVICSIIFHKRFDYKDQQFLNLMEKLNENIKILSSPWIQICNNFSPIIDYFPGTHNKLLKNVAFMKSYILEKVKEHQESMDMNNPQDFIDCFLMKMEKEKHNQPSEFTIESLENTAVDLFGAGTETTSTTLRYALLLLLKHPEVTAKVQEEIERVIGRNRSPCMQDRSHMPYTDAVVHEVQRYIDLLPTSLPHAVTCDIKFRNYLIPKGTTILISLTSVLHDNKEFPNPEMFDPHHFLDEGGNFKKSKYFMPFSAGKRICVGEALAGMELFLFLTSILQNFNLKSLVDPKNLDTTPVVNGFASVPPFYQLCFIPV
Sequence of CYP3A4 (P08684 whole entry): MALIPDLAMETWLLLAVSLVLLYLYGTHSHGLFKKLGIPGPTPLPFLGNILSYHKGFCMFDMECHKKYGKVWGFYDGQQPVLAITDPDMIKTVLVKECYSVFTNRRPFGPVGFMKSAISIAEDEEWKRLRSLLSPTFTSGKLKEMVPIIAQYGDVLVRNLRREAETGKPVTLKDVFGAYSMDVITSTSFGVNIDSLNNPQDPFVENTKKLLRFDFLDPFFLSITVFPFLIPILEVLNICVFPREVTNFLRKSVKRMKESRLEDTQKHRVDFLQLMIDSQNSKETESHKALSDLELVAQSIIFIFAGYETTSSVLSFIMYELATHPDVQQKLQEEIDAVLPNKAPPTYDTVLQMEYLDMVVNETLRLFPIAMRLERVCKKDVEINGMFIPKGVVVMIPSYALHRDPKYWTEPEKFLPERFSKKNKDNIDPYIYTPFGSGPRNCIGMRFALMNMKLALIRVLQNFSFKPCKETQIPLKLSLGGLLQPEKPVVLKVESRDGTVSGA
Sequence of CYP2D6 (P10635 whole entry): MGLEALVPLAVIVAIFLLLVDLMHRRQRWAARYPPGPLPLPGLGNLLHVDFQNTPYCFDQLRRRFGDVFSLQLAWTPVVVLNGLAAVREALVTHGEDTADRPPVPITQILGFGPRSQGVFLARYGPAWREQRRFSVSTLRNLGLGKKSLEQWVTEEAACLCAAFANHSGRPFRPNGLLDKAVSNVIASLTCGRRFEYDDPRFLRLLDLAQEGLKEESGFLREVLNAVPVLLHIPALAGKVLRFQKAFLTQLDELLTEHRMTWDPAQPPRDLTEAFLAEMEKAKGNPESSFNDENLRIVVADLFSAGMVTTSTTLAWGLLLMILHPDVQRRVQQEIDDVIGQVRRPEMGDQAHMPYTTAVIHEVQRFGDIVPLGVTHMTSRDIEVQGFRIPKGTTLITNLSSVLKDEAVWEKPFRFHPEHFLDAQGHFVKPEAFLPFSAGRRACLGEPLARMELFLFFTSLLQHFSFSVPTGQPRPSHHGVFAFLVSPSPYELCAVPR

Row | SMILES | rM1 PAM AChmax (%) (rat M1; PAM mode) | EC50 (rat M1; [1]) | rM1 Agonist AChmax (%) (rat M1; agonist mode) | EC50 (rat M1; agonist mode, read-out: rat M1 agonism EC50) | activity on human M2–5 (hM2-5) | activity on rat M2–5 (rM2-5) | IC50 (CYP1A2) | IC50 (CYP2C9) | IC50 (CYP2D6) | IC50 (CYP3A4) | Papp at 2 h (P-gp) | efflux ratio at 2 h (P-gp) | EC50 (rat M1; [2]) | EC50 (hM2-5) | EC50 (rM2-5) | P-gp ER (P-gp)
1 | Cn1ccc2nc(C(=O)NC3CCOCC3)cc(Cc3ccc(-c4cc[nH]n4)cc3)c21 [compound 24] | 89% | 0.056 µM | 48% | 3.1 µM | inactive | inactive | > 30 µM | > 30 µM | > 30 µM | 5.7 µM | 2 ×10⁻⁶ cm/s | 31.9 | – | – | – | –
2 | Cn1ccc(-c2ccc(Cc3cc(C(=O)NC4CCOCC4)nc4ccsc34)cc2)n1 [compound 12] | 90% | 0.063 µM | 32% | – | – | – | > 30 µM | 16.6 µM | > 30 µM | > 30 µM | 26.8 ×10⁻⁶ cm/s | 0.8 | 4.35 µM | > 30 µM | > 30 µM | 0.8
3 | Cn1ccc(-c2ccc(Cc3cc(C(=O)NC4CCOCC4)nc4ccn(C)c34)cc2)n1 [compound 11] | 91% | 0.094 µM | 36% | – | – | – | > 30 µM | 28.5 µM | > 30 µM | > 30 µM | 12.8 ×10⁻⁶ cm/s | 3.5 | 7.34 µM | > 30 µM | > 30 µM | 3.5
